Tests used:
[1] = tested on: HCV replicon; test: HCV replicon luciferase assay; assay type: cell-based; settings: Hepatitis C virus, Huh-7, 72 h
Description: The cell lines used to evaluate compounds consist of a human hepatocyte derived cell line (Huh-7) that constitutively expresses a genotype 1b (Con-1) HCV replicon or a genotype 1b (Con-1) HCV replicon with an asparagine replacing the cysteine at amino acid 316, or a genotype 2a (JFH-1) replicon, containing a Renilla luciferase reporter gene. These cells were maintained in Dulbecco's modified Eagle medium (DMEM) containing 10% FBS, 100 U/mL penicillin/streptomycin and 1.0 mg/mL G418.
To evaluate compound efficacy, titrated compounds were transferred to sterile 384-well tissue culture treated plates, and the plates were seeded with HCV replicon cells (50 μL at a density of 2.4×10^3 cells/well) in DMEM containing 4% FBS (final DMSO concentration at 0.5%). After 3 days incubation at 37° C., cells were analyzed for Renilla Luciferase activity using the EnduRen substrate (Promega cat #E6485) according to the manufacturer's directions. Briefly, the EnduRen substrate was diluted in DMEM and then added to the plates to a final concentration of 7.5 μM. The plates were incubated for at least 1 h at 37° C. then read on a Viewlux Imager (PerkinElmer) using a luminescence program. The 50% effective concentration (EC50) was calculated using the four-parameter logistic formula noted above.
Compound EC50 data is expressed as A: <100 nM; B=100-1000 nM; C>1000 nM).

[2] = tested on: HCV; settings: extended dosing of the combination regimens; cited from earlier work
[3] = tested on: HCV; settings: combination therapy; cited from earlier work

CNC(=O)c1c(-c2ccc(F)cc2)oc2cc(N(CCF)S(C)(=O)=O)c(-c3cccc(C(=O)N4CCC(=C(C#N)c5ccccc5)CC4)c3)cc12 [Compound 4013] gave an EC50 [1] of under 100 nM.

CNC(=O)c1c(-c2ccc(F)cc2)oc2cc(N(CCF)S(C)(=O)=O)c(-c3cccc(C(=O)N4CC[C@@H](F)C4)c3)cc12 [Compound 4024] showed an EC50 [1] of 76.5 nM.

With CNC(=O)c1c(-c2ccc(F)cc2)oc2cc(N(CCF)S(C)(=O)=O)c(-c3cccc(C(=O)N4CCN(C(=C(C#N)C#N)c5ccccc5)CC4)c3)cc12 [Compound 4007] the EC50 [1] was under 100 nM.

Molecule CNC(=O)c1c(-c2ccc(F)cc2)oc2cc(N(CCF)S(C)(=O)=O)c(-c3cccc(C(=O)N4CCC(=C(c5ccccc5)c5nnc(C)o5)CC4)c3)cc12 [Compound 4012] has an EC50 [1] of 27.1 nM.

In the case of CNC(=O)c1c(-c2ccc(F)cc2)oc2cc(N(CCF)S(C)(=O)=O)c(-c3cccc(C(=O)N4CCN(c5nnnn5-c5ccccc5)CC4)c3)cc12 [Compound 4008], the EC50 [1] is reported as 107 nM.

Molecule CNC(=O)c1c(-c2ccc(F)cc2)oc2cc(N(CCF)S(C)(=O)=O)c(-c3cccc(C(=O)N4CC(O)C[C@H]4C(=O)OCc4ccccc4)c3)cc12 (stereo partly shown) [Compound 4018] has an EC50 [1] of 100 to 1000 nM.

In the case of CNC(=O)c1c(-c2ccc(F)cc2)oc2cc(N(CCO)S(C)(=O)=O)c(C3CC3)cc12 [HCV-796], the hepatic toxicity [2] is given as “hepatic toxicity observed”.

CNC(=O)c1c(-c2ccc(F)cc2)oc2cc(N(CCF)S(C)(=O)=O)c(-c3cccc(C(=O)N4CCN(C(=O)OC(C)(C)C)CC4CC(=O)OC)c3)cc12 (stereo not shown) [Compound 4005] showed an EC50 [1] of under 100 nM.

Molecule CNC(=O)c1c(-c2ccc(F)cc2)oc2cc(N(CCF)S(C)(=O)=O)c(-c3cccc(C(=O)N4CCN(C5CC5)CC4)c3)cc12 [Compound 4002] has an EC50 [1] of under 100 nM.

For CNC(=O)c1c(-c2ccc(F)cc2)oc2cc(N(CCF)S(C)(=O)=O)c(-c3cccc(C(=O)N4CC[C@H](F)C4)c3)cc12 [Compound 4020], the EC50 [1] was 45 nM.

For CNC(=O)c1c(-c2ccc(F)cc2)oc2cc(N(CCF)S(C)(=O)=O)c(-c3cccc(C(=O)N4CCC(NC(=O)OC(C)(C)C)(C(F)(F)F)C4)c3)cc12 (stereo not shown) [Compound 4022], the EC50 [1] was under 100 nM.

CNC(=O)c1c(-c2ccc(F)cc2)oc2cc(N(CCF)S(C)(=O)=O)c(-c3cccc(C(=O)N4CCN(c5nnnn5-c5ccccc5)[C@H](C)C4)c3)cc12 [Compound 4010] gave an EC50 [1] of under 100 nM.

Molecule CNC(=O)c1c(-c2ccc(F)cc2)oc2cc(N(CCF)S(C)(=O)=O)c(-c3cccc(C(=O)N4CCN(/C(=N/C#N)c5ccccc5)CC4)c3)cc12 [Compound 4006] has an EC50 [1] of 100 to 1000 nM.

With CNC(=O)c1c(-c2ccc(F)cc2)oc2cc(N(CCF)S(C)(=O)=O)c(-c3cccc(C(=O)N4CC[C@@H](C#N)C4)c3)cc12 [Compound 4021] the EC50 [1] was over 1000 nM.

Work on CNC(=O)c1c(-c2ccc(F)cc2)oc2cc(N(CCF)S(C)(=O)=O)c(-c3cccc(C(=O)N4CCC(=C(C#N)c5ccccn5)CC4)c3)cc12 [Compound 4014] yielded an EC50 [1] of under 100 nM.

Work on CCN(c1cc2oc(-c3ccc(F)cc3)c(C(=O)NC)c2cc1-c1cccc(C(=O)N2CCN(C(=O)OC(C)(C)C)C[C@@H]2C#N)c1)S(C)(=O)=O [Compound 3001] yielded an EC50 [1] of under 100 nM.

For CNC(=O)c1c(-c2ccc(F)cc2)oc2cc(N(CCF)S(C)(=O)=O)c(-c3cccc(C(=O)N4CCNC(=O)C45CCCC5)c3)cc12 [Compound 4026], the EC50 [1] was under 100 nM.

In the case of alpha-interferon and ribavirin, the sustained efficacy [3] is listed as 40 % of patients.

Work on CNC(=O)c1c(-c2ccc(F)cc2)oc2cc(N(CCF)S(C)(=O)=O)c(-c3cccc(C(=O)N4CCCC4c4ccc(N(C)C)cc4)c3)cc12 (stereo not shown) [Compound 4016] yielded an EC50 [1] of 84.8 nM.

Molecule CCNc1cc2oc(-c3ccc(F)cc3)c(C(=O)NC)c2cc1-c1cccc(C(=O)N2CCNC(C#N)C2)c1 (stereo not shown) [Compound 2001] has an EC50 [1] of 100 to 1000 nM.

CNC(=O)c1c(-c2ccc(F)cc2)oc2cc(N(CCF)S(C)(=O)=O)c(-c3cccc(C(=O)N4CCC[C@@H]4C(N)=O)c3)cc12 [Compound 4017] showed an EC50 [1] of over 1000 nM.

For CNC(=O)c1c(-c2ccc(F)cc2)oc2cc(N(CCF)S(C)(=O)=O)c(-c3cccc(C(=O)N4CC(F)(F)C[C@H]4C(N)=O)c3)cc12 [Compound 4019], the EC50 [1] was over 1000 nM.

For CNC(=O)c1c(-c2ccc(F)cc2)oc2cc(N(CCF)S(C)(=O)=O)c(-c3cccc(C(=O)N4CCN(c5nnnn5-c5ccccc5)C[C@@H]4C)c3)cc12 [Compound 4009], the EC50 [1] was under 100 nM.

CCN(c1cc2oc(-c3ccc(F)cc3)c(C(=O)NC)c2cc1-c1cccc(C(=O)N2CCN(C(=O)OC(C)(C)C)C[C@H]2C#N)c1)S(C)(=O)=O [Compound 3002] gave an EC50 [1] of under 100 nM.

Work on CCN(c1cc2oc(-c3ccc(F)cc3)c(C(=O)NC)c2cc1-c1cccc(C(=O)N2CCN(S(C)(=O)=O)C(C#N)C2)c1)S(C)(=O)=O (stereo not shown) [Compound 3003] yielded an EC50 [1] of 25.2 nM.

Molecule CNC(=O)c1c(-c2ccc(F)cc2)oc2cc(N(CCF)S(C)(=O)=O)c(-c3cccc(C(=O)N4CCN(C(=O)C(F)(F)F)CC4)c3)cc12 [Compound 4001] has an EC50 [1] of over 1000 nM.

CNC(=O)c1c(-c2ccc(F)cc2)oc2cc(N(CCF)S(C)(=O)=O)c(-c3cccc(C(=O)N4CCCC4C(F)(F)F)c3)cc12 (stereo not shown) [Compound 4015] gave an EC50 [1] of under 100 nM.

Work on CCOC(=O)CC1C(=O)NCCN1C(=O)c1cccc(-c2cc3c(C(=O)NC)c(-c4ccc(F)cc4)oc3cc2N(CCF)S(C)(=O)=O)c1 (stereo not shown) [Compound 4027] yielded an EC50 [1] of over 1000 nM.

In the case of CNC(=O)c1c(-c2ccc(F)cc2)oc2cc(N(CCF)S(C)(=O)=O)c(-c3cccc(C(=O)N4CCCC4c4nccs4)c3)cc12 (stereo not shown) [Compound 4023], the EC50 [1] is reported as under 100 nM.

With CCN(CC)c1cc2oc(-c3ccc(F)cc3)c(C(=O)NC)c2cc1-c1cccc(C(=O)N2CC(F)(F)C2)c1 [Compound 1001] the EC50 [1] was 45.4 nM.

In the case of CNC(=O)c1c(-c2ccc(F)cc2)oc2cc(N(CCF)S(C)(=O)=O)c(-c3cccc(C(=O)N4CC(F)(F)C(F)(F)C4)c3)cc12 [Compound 4025], the EC50 [1] is reported as under 100 nM.

In the case of CNC(=O)c1c(-c2ccc(F)cc2)oc2cc(N(CCF)S(C)(=O)=O)c(-c3cccc(C(=O)N4CCN(C(=O)N5CCOCC5)CC4)c3)cc12 [Compound 4004], the EC50 [1] is reported as 1690 nM.

Molecule CNC(=O)c1c(-c2ccc(F)cc2)oc2cc(N(CCF)S(C)(=O)=O)c(-c3cccc(C(=O)N4CCC(=C(c5ccccc5)c5ccccc5)CC4)c3)cc12 [Compound 4011] has an EC50 [1] of under 100 nM.

In the case of CNC(=O)c1c(-c2ccc(F)cc2)oc2cc(N(CCF)S(C)(=O)=O)c(-c3cccc(C(=O)N4CCN(c5ncccn5)CC4)c3)cc12 [Compound 4003], the EC50 [1] is reported as under 100 nM.
